Laboratory results: patent publication US6740335B1, “Liposomal camptothecin formulations” (priority 1997, dated 2004)
Where a name gives a salt, the structure may show the parent alone.

Key:
[1] = Precipitation of GI147211 with counterion excipients (HPLC of supernatant); type: physicochemical
Protocol: The excipients include, but are not limited to, the acid, sodium or ammonium forms of monovalent anions such as chloride, acetate, lactobionate and formnate; divalent anions such as succinate, aspartate and sulfate; and trivalent ions such as citrate and phosphate. To assess the relative degree of precipitation brought about with each excipient, 5 mg/ml solutions of GI147211 were prepared at low pH (2±0.5) and different counterions were added. The solutions of GI147211 and counterion were allowed to stand for 15 to 20 minutes, then centrifuiged at 3600 rpm for 10 minutes to isolate the precipitate. The quantity of GI147211 remaining in solution for each sample was then assessed by assaying the supernatants using HPLC with the following conditions: C18 ODS Hypersil column from Keystone, mobile phase of 30/70 (v/v) acetonitrile/0.1% acetic acid +0.1% aqueous triethylamine buffer, pH 3.30 with LTV detection at 270 nm. The amount of GI147211 precipitated was also tabulated by the taking the difference of the concentration of the remaining soluble fraction from Smg/ml, the original GI1147211 concentration in solution. Each number is expressed in Table 6 as percentage of the original solution concentration of 5 mg/ml.
To more fully explore the concentration dependence of GI147211 precipitation, 5 mg/ml solutions of the drug were prepared as described in Example 3 and titrated with increasing concentrations of the counterion excipients sulfate, citrate, phosphate and chloride. The solutions of GI147211 and counterion were allowed to stand for 15 to 20 minutes, then centrifuged at 3600 rpm for 10 minutes to isolate the precipitate and the supernatants were assayed as described in Example 3.
In a separate study, precipitation of the camptothecin GI147211 was examined at the predicted concentration in the interior of the liposome (approx. 40 mg/ml camptothecin GI147211) after loading in the presence of 50 mM ammonium sulfate.

[2] = system: SKOV-3 (ovarian carcinoma); test: 3H-thymidine incorporation cytotoxicity assay, SKOV-3; type: cell-based, human; details: Homo sapiens, SK-OV-3; SKOV-3, 42 h; read-out: Median IC50
Protocol: (§1) In vitro efficacy screening has been performed using GI147211 and liposomal formulations of GI147211. […] Standard tumor cell-based cytototoxicity assays assessing ^3H-thymidine incorporation were performed.
(§2) Tumor cells were seeded into 96-well tissue culture plates (1×10^4 cells/well)≡4 h prior to experimentation. […] Positive and negative (Tris treated) control groups were included on each assay plate. Tumor cells were then labeled with 0.25 μCi of [methyl-^3H] thymidine and incubated for 42 h under tissue culture conditions (37° C., 5% CO2, 100% relative humidity), except for C6, U251, A673 and B16-F1 cells which were incubated for 24 h. Cells were then lysed, harvested onto glass-fiber filters and unincorporated [methyl-^3H] thymidine removed by filter washing. Filters were processed for scintillation counting and cpm-^3H/well determined. […] Data are presented from multiple sets of experimentation, involving multiple liposomal formulations of GI147211.

[3] = system: ES-2 (ovarian carcinoma); test: 3H-thymidine incorporation cytotoxicity assay, ES-2; type: cell-based, human; details: Homo sapiens; ES-2, 42 h; read-out: Median IC50
Protocol: as §1, §2

[4] = system: KB Head/Neck Tumor; test: Xenograft efficacy at identical dose, KB; type: in vivo, nude mice; details: for Log 10 Cell Kill / T-C (time to reach 1,000% Tumor Volume, treated vs control): QD7 × 3; for % TGI: QD7 × 3, day 22
Protocol: In all the studies performed, subcutaneous tumors implanted on the anterior flank of nude mice were allowed to grow to an established size of 200+/−50 mm^3 prior to dosing drugs.
The xenograft models included the HT29 and SW48 human colon tumor lines, and the KB and KBV head-neck tumors. Drugs were dosed at either 6 or 9 mg/kg intravenously, on a weekly schedule for 3 consecutive weeks. In the SW48 xenograft study, the animals received a total of two cycles of therapy (6 injections), with a 10 day recovery period separating the two therapeutic courses. In the HT29 xenograft study a 12 and 14 mg/kg dose group was added.

[5] = system: KB Tumor Xenograft; test: HSPC vs DSPC liposomal GI147211 repeat-dose study, KB xenograft; type: in vivo, nude mice; details: 14 mg/kg iv, two drug doses
Source text: On a day 1 and day 8 dose schedule and after two weeks rest the same cycle of therapy was repeated with doses delivered on day 23 and day 30.

[6] = system: KB Tumor Xenograft; test: Repeat dose efficacy, KB xenograft; type: in vivo, nude mice; details: 14 mg/kg
Protocol: Drugs were dosed on days 1,8 and 15.

[7] = system: B16-F1 (Melanoma, murine); test: 3H-thymidine incorporation cytotoxicity assay, B16-F1; type: cell-based; details: Mus musculus, B16-F1, 24 h; read-out: Median IC50
Protocol: as §1, §2

[8] = system: HT-29 (Colon); test: 3H-thymidine incorporation cytotoxicity assay, HT-29; type: cell-based, human; details: Homo sapiens, HT-29, 42 h; read-out: Median IC50
Protocol: as §1, §2

[9] = system: tumor cell; details: tumor cell cytotoxicity assays; cited from earlier work
[10] = system: KB (oralpharyngial carcinoma); test: 3H-thymidine incorporation cytotoxicity assay, KB; type: cell-based, human; details: Homo sapiens, 42 h, read-out: Median IC50
Protocol: as §1, §2

[11] = 5 mg/ml GI147211, pH 2±0.5, aspartate 50 mM
[12] = 5 mg/ml GI147211, pH 2±0.5, chloride 100 mM
[13] = 5 mg/ml GI147211, pH 2±0.5, citrate 20 mM
[14] = 5 mg/ml GI147211, pH 2±0.5, citrate 50 mM
[15] = 5 mg/ml GI147211, pH 2±0.5, formate 50 mM
[16] = 5 mg/ml GI147211, pH 2±0.5, lactobionate 50 mM
[17] = 5 mg/ml GI147211, pH 2±0.5, phosphate 100 mM
[18] = 5 mg/ml GI147211, pH 2±0.5, succinate 500 mM
[19] = 5 mg/ml GI147211, pH 2±0.5, sucrose 300 mM
[20] = 5 mg/ml GI147211, pH 2±0.5, sulfate 20 mM
[21] = 5 mg/ml GI147211, pH 2±0.5, sulfate 50 mM
[22] = approx. 40 mg/ml GI147211, 50 mM ammonium sulfate

CCC1(O)C(=O)OCc2c1cc1n(c2=O)Cc2c-1nc1cc3c(cc1c2CN1CCN(C)CC1)OCCO3 (stereo in doubt) [GI147211, 7-(4-methylpiperazinomethylene)-10,11-ethylenedioxy-20(S)-camptothecin dihydrochloride]
% GI147211 Precipitated [1, 11]: 57.8%
% GI147211 Remaining in Solution [1, 11]: 42.2%
% GI147211 Precipitated [1, 12]: 85.2%
% GI147211 Remaining in Solution [1, 12]: 14.8%
% GI147211 Precipitated [1, 13]: 98.8%
% GI147211 Remaining in Solution [1, 13]: 1.2%
% GI147211 Precipitated [1, 14]: 99.1%
% GI147211 Remaining in Solution [1, 14]: 0.9%
% GI147211 Precipitated [1, 15]: 64.7%
% GI147211 Remaining in Solution [1, 15]: 35.3%
% GI147211 Precipitated [1, 16]: 6.2%
% GI147211 Remaining in Solution [1, 16]: 93.8%
% GI147211 Precipitated [1, 17]: 82.3%
% GI147211 Remaining in Solution [1, 17]: 17.7%
% GI147211 Precipitated [1, 18]: 98.8%
% GI147211 Remaining in Solution [1, 18]: 1.2%
% GI147211 Precipitated [1, 19]: 8.2%
% GI147211 Remaining in Solution [1, 19]: 91.8%
% GI147211 Precipitated [1, 20]: 97.9%
% GI147211 Remaining in Solution [1, 20]: 2.1%
% GI147211 Precipitated [1, 21]: 98.1%
% GI147211 Remaining in Solution [1, 21]: 1.9%
drug precipitated [1, 22]: ~99%
remained in solution [1, 22]: 0.5%
drug precipitated ([1]; chloride and phosphate): greater than 82%
drug precipitated ([1]; formate and aspartate): greater than 55%
drug precipitated ([1]; sucrose and lactobionate): less than 10%
drug precipitated ([1]; sulfate, citrate, and succinate): greater than 97%
IC50 [2]: 1.63 ng/mL
IC50 [3]: 0.489 ng/mL
Log 10 Cell Kill ([4]; 6 mg/kg iv): 0.87
T-C (time to reach 1,000% Tumor Volume, treated vs control) ([4]; 6 mg/kg iv): 9 days
% TGI ([4]; 6 mg/kg iv): 54%
Log 10 Cell Kill ([4]; 9 mg/kg iv): 1.64
T-C (time to reach 1,000% Tumor Volume, treated vs control) ([4]; 9 mg/kg iv): 17 days
% TGI ([4]; 9 mg/kg iv): 73%
Cures (tumor-free animals at day 60) [5]: 0/8
Log Cell Kill Index [5]: 0.81
T − C (to achieve 400% tumor volume increase) [5]: 13.4
Toxic Deaths [5]: 0/8
% TGI ([5]; day 18): 77.5%
% TGI ([6]; day 15): 83%
Mean Tumor Volume +/− (SD) ([6]; days 1, 8 and 15): 275 (67)
Toxic Deaths ([6]; days 1, 8 and 15): 0/8
IC50 [7]: 111 ng/mL
IC50 [8]: 0.763 ng/mL
potency relative to topotecan [9]: 5-10 times
IC50 [10]: 4.31 ng/mL
